Structures can show the parent of a compound that is named as a salt. One block for each compound: values may come before it.
Tests used:
[1] = tested on: HGPS cells (γH2AX, autophosphorylated ATM); test: DNA damage markers in HGPS cells (western blotting, IF); assay type: cell-based, human; details: Remodelin 1 μM
Procedure: (§1) The following KAT and KDAC inhibitors were used in the nuclear shape rescue screen, incubating cells with the molecules for 16 hours: trichostatin A (1 μM), sodium butyrate (5 mM), tubacin (10 μM), SAHA (5 μM), curcumin (10 μM), garcinol (50 μM), anacardic acid (1 μM), MB-3 (5 μM), 4-(4-chlorophenyl)-2-(2-cyclopentylidenehydrazinyl)thiazole (Compound 2) (50 μM), 4-(4-chlorophenyl)-2-(2-cyclopentylidene-1-(prop-2-yn-1-yl)hydrazinyl)thiazole (Compound 3) (50 μM) and cyclopentylidene-[4-(4-cyanophenyl)thiazol-2-yl)hydrazine (Compound 1) (Remodelin) (10 to 50 μM). For HGPS cellular fitness assays, Remodelin was incubated at 1 μM for 1 to 10 days, renewing the medium every 3 days. For long-term senescence assay, cells were kept and passaged in medium containing 1 μM Remodelin or DMSO only for 12 population doublings. Senescence was assessed after 8 days of Remodelin treatment when cells were at Population Doubling 12, and then after several weeks of Remodelin treatment, when cells reached Population Doubling 24 using the Senescence β-Galactosidase Staining Kit #9860 from Cell Signaling. […]
Total cell extracts were prepared by scraping cells in SDS lysis buffer (4% SDS, 20% glycerol, and 120 mM Tris-HCl, pH 6.8), boiling for 5 minutes at 95° C., followed by 10 strokes through a 25-gauge needle. […] Detection and quantification was performed with an imager (Odyssey; LI-COR Biosciences). […]

[2] = tested on: HGPS cells; test: Proliferation assay of HGPS cells (IncuCyte); assay type: cell-based, human; details: Remodelin 1 μM
Procedure: HGPS cells were plated at the same number in 24 well dishes. Next day, Remodelin (1 μM) or small molecule Compound 2 (1 to 10 μM), were added to the wells and plates were transferred into an IncuCyte microscope (Essen BioScience). Phase contrast pictures were acquired every 2 hours over several days. Percentage of cell confluence was calculated by the Cell Player integrated software (Essen BioScience) and analysed with GraphPad Prism® software.

[3] = tested on: HGPS cells; test: Chromatin, nucleolar and SUN1 organization in HGPS cells (IF); assay type: cell-based, human; details: Remodelin 1 μM
Procedure: as §1, with “Signaling. Nocodazole, colchicine and latrunculin A (Sigma-Aldrich) were used at 200 ng/ml, 1 μg/ml and 1 μM respectively. Aphidicolin (Sigma-Aldrich) was used at 5 μg/ml for 16 h. Farnesyltransferase inhibitor FTI-277 was purchased from Tocris Bioscience and used at 5 μM.” for “Signaling.”

[4] = tested on: HGPS AG11498 cells; test: Senescence-associated β-galactosidase in HGPS cells; assay type: cell-based, human
Procedure: The following KAT and KDAC inhibitors were used in the nuclear shape rescue screen, incubating cells with the molecules for 16 hours: trichostatin A (1 μM), sodium butyrate (5 mM), tubacin (10 μM), SAHA (5 μM), curcumin (10 μM), garcinol (50 μM), anacardic acid (1 μM), MB-3 (5 μM), 4-(4-chlorophenyl)-2-(2-cyclopentylidenehydrazinyl)thiazole (Compound 2) (50 μM), 4-(4-chlorophenyl)-2-(2-cyclopentylidene-1-(prop-2-yn-1-yl)hydrazinyl)thiazole (Compound 3) (50 μM) and cyclopentylidene-[4-(4-cyanophenyl)thiazol-2-yl)hydrazine (Compound 1) (Remodelin) (10 to 50 μM). For HGPS cellular fitness assays, Remodelin was incubated at 1 μM for 1 to 10 days, renewing the medium every 3 days. For long-term senescence assay, cells were kept and passaged in medium containing 1 μM Remodelin or DMSO only for 12 population doublings. Senescence was assessed after 8 days of Remodelin treatment when cells were at Population Doubling 12, and then after several weeks of Remodelin treatment, when cells reached Population Doubling 24 using the Senescence β-Galactosidase Staining Kit #9860 from Cell Signaling. Nocodazole, colchicine and latrunculin A (Sigma-Aldrich) were used at 200 ng/ml, 1 μg/ml and 1 μM respectively. Aphidicolin (Sigma-Aldrich) was used at 5 μg/ml for 16 h. Farnesyltransferase inhibitor FTI-277 was purchased from Tocris Bioscience and used at 5 μM. ATMi (KU55933) and ATRi (ATR-45) were obtained from Tocris Bioscience and from the Ohio State University respectively and used at 10 μM and 500 nM. Pifithrin alpha (Sigma-Aldrich) was used at 10 μM.

[5] = tested on: SUN1 in siLMNA cells; test: SUN1 expression and localization in siLMNA cells; assay type: cell-based, human
Procedure: Cells were washed with PBS and fixed for 20 minutes with 2% PFA in PBS. Cells were permeabilised for 5 minutes with PBS/0.2% Triton X-100, and blocked with PBS/0.2% Tween 20 (PBS-T) containing 5% BSA. Coverslips were incubated for 1 hour with primary antibodies and for 30 minutes with appropriate secondary antibodies coupled to Alexa Fluor 488 or 594 fluorophores (Life Technologies), before being incubated with 2 μg/ml DAPI. Pictures were acquired with a FluoView 1000 confocal microscope (Olympus). For high resolution imaging, z-stacks were acquired with a Deltavision PersonalDV (Applied Precision, 1024×1024 CoolSNAP HQ2 camera, z-stack of 0.2 μm interval) or with a Deltavision OMX V3 in conventional mode (Applied Precision, 512×512 Cascade II cameras (Photometrics), z-stack of 0.125 μm interval) both equipped with a 100× UPlanSApo/1.40 oil objective (Olympus) and controlled with SoftWoRx software (Applied Precision). Deconvolutions were then performed with SoftWoRx (Applied Precision) in conservative mode. The different channels were acquired sequentially.

[6] = tested on: GFP-H2B expressing U2OS cells transfected with siLMNA; test: Live imaging of GFP-H2B cells; assay type: cell-based, human; details: Compound 2 at 50 μM, independently of mitosis
Procedure: U2OS cells were transfected with siLMNA for 48 hours before addition of (Compound 2) at 50 μM. Pictures were acquired every 15 minutes for 16 hours in z-stack of 0.2 μm interval with a Deltavision PersonalDV (Applied Precision, 512×512 CoolSNAP HQ2 camera) equipped with a 100× UPlanSApo/1.40 oil objective (Olympus) and controlled with SoftWoRx software (Applied Precision). Movies were then assembled from pictures with ImageJ software.

[7] = tested on: main lysine acetyltranferase proteins (KAT); test: In vitro specificity against lysine acetyltransferases; assay type: biochemical
[8] = tested on: HGPS mice (Lmna^G609G/G609G); test: Survival in mouse model of Hutchinson Gilford progeria syndrome; assay type: in vivo; details: daily oral dose of 100 mg/kg/day from 3 weeks of age, vs vector only, n=10
Procedure: Middle panel of FIG. 25: HGPS mice were treated with a daily oral dose of 100 mg/kg/day of Compound 2 from 3 weeks of age and until culled due to >20% body weight loss. […] Right panel of FIG. 25: Global survival of HGPS mice (Lmna^G609G/G609G) treated with vector only (Lmna^G609G/G609G V) or with Compound 2 (Lmna^G609G/G609G2) showing a significant increase of the median survival of mice upon Compound 2 treatment (+25%). Number of mice/group n=10.

[9] = molecular target: T1, NAT10 (Homo sapiens, UniProt Q9H0A0); test: Clickable small molecule pull-down from live cells, western blotting; assay type: binding; details: pre-incubated in live U2OS cells, biotin linker, streptavidin beads
T1 construct: endogenous in cells; host or cells: U2OS
T1 sequence (Q9H0A0 whole entry): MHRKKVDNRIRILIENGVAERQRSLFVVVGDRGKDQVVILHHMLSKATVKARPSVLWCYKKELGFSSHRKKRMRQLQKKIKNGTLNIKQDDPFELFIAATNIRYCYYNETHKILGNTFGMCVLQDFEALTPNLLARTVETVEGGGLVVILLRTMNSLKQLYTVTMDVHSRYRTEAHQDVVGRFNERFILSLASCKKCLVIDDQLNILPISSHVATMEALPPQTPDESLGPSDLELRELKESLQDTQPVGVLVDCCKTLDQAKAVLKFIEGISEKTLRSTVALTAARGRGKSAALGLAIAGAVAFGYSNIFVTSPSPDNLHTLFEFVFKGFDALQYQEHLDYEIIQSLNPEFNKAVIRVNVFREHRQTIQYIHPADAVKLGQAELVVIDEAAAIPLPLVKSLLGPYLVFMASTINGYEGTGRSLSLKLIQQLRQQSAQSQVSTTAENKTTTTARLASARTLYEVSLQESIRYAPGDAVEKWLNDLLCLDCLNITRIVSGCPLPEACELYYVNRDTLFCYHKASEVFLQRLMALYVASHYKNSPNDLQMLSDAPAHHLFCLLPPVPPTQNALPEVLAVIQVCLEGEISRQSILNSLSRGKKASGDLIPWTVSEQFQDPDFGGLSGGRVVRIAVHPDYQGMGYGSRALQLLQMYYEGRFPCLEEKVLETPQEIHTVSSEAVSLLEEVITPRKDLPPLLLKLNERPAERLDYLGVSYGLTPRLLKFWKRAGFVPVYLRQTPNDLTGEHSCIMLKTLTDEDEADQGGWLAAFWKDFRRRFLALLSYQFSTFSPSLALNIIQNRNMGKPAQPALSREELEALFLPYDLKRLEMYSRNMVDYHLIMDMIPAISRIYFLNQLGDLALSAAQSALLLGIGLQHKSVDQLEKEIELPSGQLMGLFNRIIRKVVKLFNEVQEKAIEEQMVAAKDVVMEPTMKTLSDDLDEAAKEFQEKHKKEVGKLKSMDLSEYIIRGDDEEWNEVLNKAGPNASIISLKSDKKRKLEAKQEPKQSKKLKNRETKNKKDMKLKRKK
Procedure: Biotinylated Compound 3 and PEG4 biotinylated Compound A were generated in situ from Compounds 2 and 3, pre-incubated in live cells for 2 h prior to adding commercially available PEG4 carboxamide-6-azidohexanyl biotin and click reagents in cell extracts (used in click-pull-down and western blotting validation).
Click reaction reagents were added to the cell lysates as follows: 10 μM biotin azide (PEG4 carboxamide-6-Azidohexanyl Biotin, Life Sciences), 10 mM sodium ascorbate (Sigma-Aldrich), 2 mM CuSO4 (Life Sciences). Click reactions were incubated in the dark for 1 hour at 4° C. with rotation. Streptavidin beads were then incubated for 1 hour and samples were eluted and loaded on a gel as described above, before immunoblotting.

Structure (SMILES): N#Cc1ccc(-c2csc(NN=C3CCCC3)n2)cc1 [Compound 1, 4-(4-Cyanophenyl)-2-(2-cyclopentylidenehydrazinyl)thiazole]
- steady-state DNA damage markers (γH2AX, autophosphorylated ATM) [1]: decreased steady-state levels of γH2AX and autophosphorylated ATM
- cell proliferation of HGPS cells [2]: enhanced cell proliferation capacity
- SUN1 accumulation at the nuclear envelope [3]: decreased SUN1 accumulation at the nuclear envelope
- chromatin and nucleolar organization (H3K9me3 and NAT10 staining) [3]: improved chromatin and nucleolar organization
- long-term senescence of HGPS cells ([4]; 1 μM Remodelin, several weeks, 12 cell divisions (PDL 24)): prevented HGPS cell senescence even after several weeks of treatment
- senescence of HGPS cells (β-galactosidase positive cells) ([4]; HGPS AG11498, Remodelin 1 μM, Pifithrin alpha 10 μM): decreased senescence
- expression and localization of SUN1 [5]: does not detectably affect the expression and localization of SUN1

Structure (SMILES): Clc1ccc(-c2csc(NN=C3CCCC3)n2)cc1 [Compound 2, 4-(4-Chlorophenyl)-2-(2-cyclopentylidenehydrazinyl)thiazole Hydrochloride Salt]
- time to complete nuclear shape rescue [6]: ≤ 12 h
- inhibition of KAT activity towards histone substrates [7]: does not inhibit the activity of the main lysine acetyltranferase proteins (KAT)
- increase of the median survival [8]: +25%

- retrieval of NAT10 in click pull-down [9]: specifically retrieved NAT10
Structure (SMILES): C#CCN(N=C1CCCC1)c1nc(-c2ccc(Cl)cc2)cs1 [Compound 3, 4-(4-Chlorophenyl)-2-(2-cyclopentylidene-1-(prop-2-yn-1-yl)hydrazinyl)thiazole]

From patent US9809562B2, “NAT10 modulators for treating or preventing laminopathies, aging and cancer” (CAMBRIDGE ENTERPRISE LIMITED, priority 2014, dated 2017)
